Columns and labels:
[1] = tested on: human Jurkat T cells [Human Jurkat T세포]; test: Combination of Julibroside III and doxorubicin: cytotoxicity (MTT assay, 48 h) and FIC in Jurkat T cells; type: cell-based
[2] = tested on: mouse liver or kidney [마우스의 간이나 신장]; test: Safety in mice: histological signs of toxicity in liver or kidney (in vivo sarcoma experiment); conditions: up to 100mg/kg
[3] = doxorubicin and Julibroside III used in combination

| SMILES | IC50 [1, 3] [µg/mL] | IC50 ([1]; treated alone) [µg/mL] | histological signs of toxicity in liver or kidney [2] |
| --- | --- | --- | --- |
| COc1cccc2c1C(=O)c1c(O)c3c(c(O)c1C2=O)C[C@@](O)(C(=O)CO)C[C@@H]3O[C@H]1C[C@H](N)[C@H](O)[C@H](C)O1 [독소루비신, reference compound] | 0.16 | 0.31 |  |
| C=C[C@](C)(CC/C=C(\C)C(=O)O[C@H]1[C@H](O)[C@@H](O)[C@H](O[C@](C)(C=C)CC/C=C(\C)C(=O)O[C@H]2C[C@]3(C(=O)O[C@@H]4O[C@H](CO)[C@@H](O)[C@H](O)[C@H]4O[C@@H]4O[C@@H](C)[C@H](O[C@@H]5O[C@@H](CO)[C@H](O)[C@H]5O)[C@@H](O[C@@H]5O[C@H](CO)[C@@H](O)[C@H](O)[C@H]5O)[C@H]4O)[C@H](O)C[C@]4(C)C(=CC[C@@H]5[C@@]6(C)CC[C@H](O[C@@H]7O[C@H](CO[C@@H]8O[C@H](C)[C@H](O)[C@H](O)[C@H]8O[C@@H]8OC[C@@H](O)[C@H](O)[C@H]8O)[C@@H](O)[C@H](O)[C@H]7NC(C)=O)C(C)(C)[C@@H]6CC[C@]54C)[C@@H]3CC2(C)C)O[C@@H]1C)O[C@@H]1O[C@H](C)[C@@H](O)[C@H](O)[C@H]1O [Julibroside III] | 0.63 | 2.5 | 징후가 전혀 없음 |
